Values of other authors as cited in US12582591B2, “Increased solubilization of ethylhexyl triazone” (DSM IP Assets B.V., priority 2020, dated 2026).
Like-named read-outs stand apart in the source and are kept apart here.

Conditions: for Solubility in esters and alcohols: particularly ethyl acetate, ethanol / alcohols
[1] = listed as UV-filter of the formula (I)

## CCCCC(CC)COC(=O)c1ccc(Nc2nc(Nc3ccc(C(=O)OCC(CC)CCCC)cc3)nc(Nc3ccc(C(=O)OCC(CC)CCCC)cc3)n2)cc1 (stereo not shown) [Ethylhexyl triazone, ethylhexyl triazone]
  Solubility in esters and alcohols: moderate solubility
  Solubility in water and alkanes: very low
[1]
  Solubility in esters and alcohols: very soluble
  Solubility in water and alkanes: insoluble
